ChEMBL document CHEMBL4765274, “The development of advanced structural framework as multi-target-directed ligands for the treatment of Alzheimer's disease” (Eur J Med Chem, 2020)
Active and inactive are the calls of the source. No cut-off for these calls is given here.

What was measured:
HT-22 [1] = test: Activation of ubiquitin-proteasome system in mouse HT-22 cells expressing pRK5-GFP-Tau P301L mutant assessed as increase in tau degradation by measuring reduction in GFP level at 2.5 to 20 uM after 24 hrs by flow cytometric analysis; assay type: cell-based; settings: filed as activator, dose 2.5-20 µM
Danio rerio [2] = species on record: Danio rerio; test: Antialzheimer activity in amyloid beta (1 to 40 residues)-induced zebra fish AD model assessed as reduction in vascular injury at 0.26 ug/ml relative to control; assay type: functional; set-up: scale not given: the % may be the effect or the level left; settings: dose 0.26 µg/ml
[3] = Toxicity in 3 dpf zebra fish assessed as blood flow retardation at 1.56 ug/ml; assay type: tissue-based, Danio rerio; settings: zebrafish, dose 1.56 µg/ml
[4] = Toxicity in 3 dpf zebra fish assessed as mortality at 50 ug/ml (reference value: 0%); set-up: species or system Danio rerio; settings: zebrafish, at 50 µg/mL, read-out: Activity
[5] = Toxicity in 2 dpf zebra fish assessed as yolk sac absorption delay at 25 ug/ml after 3 days relative to control; set-up: species or system Danio rerio; settings: zebrafish, 72 h, at 25 µg/mL, time 3 day
HT-22 [6] = test: Activation of ubiquitin-proteasome system in mouse HT-22 cells expressing pEGFP-N1-APP assessed as increase in APP degradation by measuring reduction in GFP level at 2.5 to 20 uM after 24 hrs by flow cytometric analysis; assay type: cell-based; settings: filed as activator, dose 2.5-20 µM
[7] = Toxicity in 2 dpf zebra fish assessed as small brain at 25 ug/ml after 3 days relative to control; assay type: tissue-based, Danio rerio; settings: zebrafish, 72 h, at 25 µg/mL, time 3 day
[8] = Drug metabolism in mouse urine assessed as metabolite formation by UPLC-TOF analysis; assay type: ADME
Mus musculus [9] = test: Antialzheimer activity in scopolamine-induced Kunming mouse model of memory impairment assessed as GC bases ratio (QC data) in brain hippocampus at 5 mg/kg , po by illumina sequencing method (reference value: 53.64%); assay type: functional
[10] = Metal chelating activity assessed as Zn2+-compound complex formation in water at 37.5 uM by UV-Visible spectra analysis
HT-22 [11] = test: Activation of ubiquitin-proteasome system in mouse HT-22 cells expressing pRK5-GFP-Tau P301L mutant assessed as increase in tau degradation by measuring reduction in GFP level at 2.5 to 20 uM after 24 hrs by Western blot analysis; assay type: cell-based; settings: filed as activator, dose 2.5-20 µM
HT-22 [12] = test: Activation of ubiquitin-proteasome system in mouse HT-22 cells expressing pRK5-GFP-Tau assessed as increase in tau degradation by measuring reduction in GFP level after 24 hrs by flow cytometric analysis; assay type: cell-based; settings: filed as activator, dose 2.5-20 µM
Mus musculus [13] = test: Antialzheimer activity in scopolamine-induced Kunming mouse model of memory impairment assessed as total mapped in brain hippocampus at 5 mg/kg , po by illumina sequencing method (reference value: 97.13%); assay type: functional
PC-12 [14] = test: Neuroprotective activity against H2O2-induced cytotoxicity in rat PC-12 cells assessed as increase in cell viability preincubated for 2 hrs followed by H2O2 addition and measured after 24 hrs by MTT assay; assay type: functional, cell-based; settings: dose 1-10 µM, time 26.0 hrs
Acetylcholinesterase = Acetylcholinesterase (Electrophorus electricus, UniProt O42275); test: Inhibition of electric eel AChE by Ellman's method
[15] = Toxicity in 2 dpf zebra fish assessed as yolk sac absorption delay at 8.33 ug/ml after 3 days relative to control; set-up: species or system Danio rerio; settings: zebrafish, 72 h, at 8.33 µg/mL, time 3 day
Mus musculus [16] = test: Antialzheimer activity in scopolamine-induced Kunming mouse model of memory impairment assessed as latency time at 50 mg/kg , po by step-down passive avoidance test (reference value: 125.65 sec); assay type: functional
[17] = Toxicity in 3 dpf zebra fish assessed as mortality at 1.56 ug/ml (reference value: 0%); set-up: species or system Danio rerio; settings: zebrafish, at 1.56 µg/mL, read-out: Activity
[18] = Metal chelating activity assessed as Al3+-compound complex formation in methanol at 37.5 uM by UV-Visible spectra analysis
HT-22 [19] = test: Activation of ubiquitin-proteasome system in mouse HT-22 cells expressing pRK5-GFP-Tau P301L mutant assessed as increase in tau degradation by measuring reduction in GFP level after 24 hrs by fluorescence microscopic method; assay type: cell-based; settings: filed as activator, dose 2.5-20 µM
[20] = Metal chelating activity assessed as Al3+-compound complex formation in water buffer at pH 7.4 at 37.5 uM by UV-Visible spectra analysis
[21] = Toxicity in 2 dpf zebra fish at 25 ug/ml after 3 days; set-up: species or system Danio rerio; settings: zebrafish, 72 h; dose 25 µg/ml, time 3 day
Cholinesterase = Cholinesterase (Homo sapiens, UniProt P06276); test: Reversible inhibition of human BChE assessed as residual activity at 0.1 times of IC50 concentration after 240 mins relative to control
Danio rerio [22] = species on record: Danio rerio; test: Antialzheimer activity in amyloid beta (1 to 40 residues)-induced zebra fish AD model assessed as reduction in vascular injury at 0.78 ug/ml relative to control; assay type: functional; set-up: scale not given: the % may be the effect or the level left; settings: dose 0.78 µg/ml
[23] = Toxicity in 2 dpf zebra fish assessed as short or misshapen jaw at 25 ug/ml after 3 days relative to control; set-up: species or system Danio rerio; settings: zebrafish, 72 h, at 25 µg/mL, time 3 day
Danio rerio [24] = species on record: Danio rerio; test: Antialzheimer activity in amyloid beta (1 to 40 residues)-induced zebra fish AD model assessed as reduction in vascular injury at 0.09 ug/ml relative to control; assay type: functional; set-up: scale not given: the % may be the effect or the level left; settings: dose 0.09 µg/ml
[25] = Metal chelating activity assessed as Cu2+-compound complex formation in PBS buffer at pH 7.4 at 37.5 uM by UV-Visible spectra analysis
[26] = Inhibition of Cu2+-induced amyloid beta (1 to 42 residues) (unknown origin) aggregation at 25 uM after 24 hrs by thioflavin-T fluorescence method relative to control
[27] = Disaggregation of Cu2+ induced amyloid beta (1 to 42 residues) (unknown origin) aggregation at 25 uM by thioflavin-T fluorescence method relative to control
Danio rerio [28] = species on record: Danio rerio; test: Antialzheimer activity in Alcl3-induced zebra fish AD model assessed as increase in motility; assay type: functional, organism-based
U-87MG ATCC = test: Induction of autophagy in human U87 cells stably transfected GFP-LC3 assessed as increase in GFP-LC3 puncta formation at 10 uM after 24 hrs by fluorescence microscopic method; assay type: functional, cell-based
[29] = Effect on GFP expression in mouse HT-22 cells expressing pEGFP-N1 at 10 uM after 24 hrs by fluorescence microscopic method; assay type: ADME, cell-based; settings: ht-22, 24 h
[30] = Toxicity in 2 dpf zebra fish assessed as edema in kidney at 25 ug/ml after 3 days relative to control; set-up: species or system Danio rerio; settings: zebrafish, 72 h, at 25 µg/mL, time 3 day
[31] = Toxicity in 3 dpf zebra fish assessed as pericardium edema at 1.56 ug/ml; set-up: species or system Danio rerio; settings: zebrafish; dose 1.56 µg/ml
[32] = Effect on GFP expression in mouse HT-22 cells expressing pEGFP-N1 at 10 uM after 24 hrs by flow cytometric analysis; assay type: ADME, cell-based; settings: ht-22, 24 h
[33] = Drug metabolism in mouse feces assessed as metabolite formation by UPLC-TOF analysis; assay type: ADME
PC-12 [34] = test: Neuroprotective activity against H2O2-induced cytotoxicity in rat PC-12 cells assessed as decrease in LDH activity at 1 to 10 uM preincubated for 2 hrs followed by H2O2 addition and measured after 24 hrs by LDH assay; assay type: functional, cell-based; settings: dose 1-10 µM, time 26.0 hrs
[35] = Toxicity in 2 dpf zebra fish assessed as change in body shape at 25 ug/ml after 3 days relative to control; set-up: species or system Danio rerio; settings: zebrafish, 72 h, at 25 µg/mL, time 3 day

Sequence of Acetylcholinesterase (O42275 whole entry): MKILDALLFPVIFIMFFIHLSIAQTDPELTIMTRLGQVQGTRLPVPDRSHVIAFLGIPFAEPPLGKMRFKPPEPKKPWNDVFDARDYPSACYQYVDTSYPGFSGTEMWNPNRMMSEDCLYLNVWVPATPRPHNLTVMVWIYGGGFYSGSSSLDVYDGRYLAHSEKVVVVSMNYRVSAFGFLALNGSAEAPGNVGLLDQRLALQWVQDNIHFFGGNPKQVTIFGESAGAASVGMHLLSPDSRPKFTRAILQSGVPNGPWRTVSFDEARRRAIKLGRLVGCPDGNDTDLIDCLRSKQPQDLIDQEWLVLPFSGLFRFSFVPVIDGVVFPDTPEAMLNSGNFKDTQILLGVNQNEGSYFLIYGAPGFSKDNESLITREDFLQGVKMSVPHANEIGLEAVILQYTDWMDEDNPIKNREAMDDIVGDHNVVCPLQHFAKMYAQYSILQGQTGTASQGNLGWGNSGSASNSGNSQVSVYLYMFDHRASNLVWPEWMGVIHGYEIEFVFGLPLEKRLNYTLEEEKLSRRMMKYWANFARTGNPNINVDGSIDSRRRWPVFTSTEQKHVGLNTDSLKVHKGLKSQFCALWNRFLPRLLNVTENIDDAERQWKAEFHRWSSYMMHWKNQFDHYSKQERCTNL
Sequence of Cholinesterase (P06276 whole entry, the tested form may be a part): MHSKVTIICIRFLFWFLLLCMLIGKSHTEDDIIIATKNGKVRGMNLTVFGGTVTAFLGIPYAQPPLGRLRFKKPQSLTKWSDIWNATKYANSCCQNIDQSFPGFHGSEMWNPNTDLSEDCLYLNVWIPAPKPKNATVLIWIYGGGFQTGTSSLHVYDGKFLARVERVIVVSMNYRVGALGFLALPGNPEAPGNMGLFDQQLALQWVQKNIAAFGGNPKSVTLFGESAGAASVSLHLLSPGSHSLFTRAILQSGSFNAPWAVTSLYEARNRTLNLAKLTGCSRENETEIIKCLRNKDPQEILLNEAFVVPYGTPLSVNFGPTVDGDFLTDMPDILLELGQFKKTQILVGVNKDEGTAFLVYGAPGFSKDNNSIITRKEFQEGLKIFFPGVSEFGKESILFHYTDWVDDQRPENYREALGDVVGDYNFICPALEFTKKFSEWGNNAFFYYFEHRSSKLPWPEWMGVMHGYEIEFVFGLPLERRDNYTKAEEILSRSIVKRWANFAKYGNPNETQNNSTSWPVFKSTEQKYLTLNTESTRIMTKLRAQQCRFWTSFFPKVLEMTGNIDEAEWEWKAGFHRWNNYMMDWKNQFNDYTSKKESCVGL

CCN(CCCCOc1ccc(-c2cc(=O)c3c(O)cc(OCCCCN(CC)Cc4ccccc4)cc3o2)cc1)Cc1ccccc1
Activity (HT-22 [1]): Active
Activity (Danio rerio [2]): 12%
Activity [3]: Toxic
mortality at 50 ug/ml [4]: 100%
Activity [5]: 100%
Activity (HT-22 [6]): Active
Activity [7]: 50%
Drug metabolism [8]: Metabolite_Detected
Activity (Mus musculus [9]): 59.05%
Activity [10]: inactive
Activity (HT-22 [11]): Active
Activity (HT-22 [12]): Dose-dependent effect
Activity (Mus musculus [13]): 97.39%
Activity (PC-12 [14]): Dose-dependent effect
IC50 (Acetylcholinesterase): 3.7 µM
Activity [15]: 73.3%
Time (Mus musculus [16]): 227.34 s
mortality at 1.56 ug/ml [17]: 6.7%
Activity [18]: Active
Activity (HT-22 [19]): Dose-dependent effect
Activity [20]: inactive
Activity [21]: Non-Toxic
Activity (Cholinesterase): 97.6%
Activity (Danio rerio [22]): 0%
Activity [23]: 56.7%
Activity (Danio rerio [24]): 9%
Activity [25]: Active
inhibition [26]: 81.3%
Activity [27]: 81.3%
Activity (Danio rerio [28]): Dose-dependent effect
Activity (U-87MG ATCC): Active
Activity [29]: Non-Toxic
Activity [30]: 66.7%
Activity [31]: Toxic
Activity [32]: Non-Toxic
Drug metabolism [33]: Metabolite_Detected
Activity (PC-12 [34]): Active
Activity [35]: 46.7%
